Reference: ChEMBL document CHEMBL3301458, “MMV Malaria Box hERG screening”
Active and inactive are the calls of the source. The rule behind the calls is not given here.

Experiments:
hERG (Kv11.1, KCNH2) [1] = target: T1, hERG (Kv11.1, KCNH2) (Homo sapiens, UniProt Q12809); assay: in vitro
Description: MMV: Malaria Box compounds were tested for inhibition of the human ether a go-go related gene (hERG), Kv11.1 channel, using IonWorks 384-well patch clamp electrophysiology at 11.1uM (3 independent assay plates up to 12 cells per concentration).

hERG (Kv11.1, KCNH2) [2] = target: T1, hERG (Kv11.1, KCNH2); assay: in vitro; remark: listed apart in the source
Description: MMV: Malaria Box compounds were tested for inhibition of the human ether a go-go related gene (hERG), Kv11.1 channel, using IonWorks 384-well patch clamp electrophysiology at 1.1uM (3 independent assay plates up to 12 cells per concentration).

T1 sequence (Q12809 whole entry): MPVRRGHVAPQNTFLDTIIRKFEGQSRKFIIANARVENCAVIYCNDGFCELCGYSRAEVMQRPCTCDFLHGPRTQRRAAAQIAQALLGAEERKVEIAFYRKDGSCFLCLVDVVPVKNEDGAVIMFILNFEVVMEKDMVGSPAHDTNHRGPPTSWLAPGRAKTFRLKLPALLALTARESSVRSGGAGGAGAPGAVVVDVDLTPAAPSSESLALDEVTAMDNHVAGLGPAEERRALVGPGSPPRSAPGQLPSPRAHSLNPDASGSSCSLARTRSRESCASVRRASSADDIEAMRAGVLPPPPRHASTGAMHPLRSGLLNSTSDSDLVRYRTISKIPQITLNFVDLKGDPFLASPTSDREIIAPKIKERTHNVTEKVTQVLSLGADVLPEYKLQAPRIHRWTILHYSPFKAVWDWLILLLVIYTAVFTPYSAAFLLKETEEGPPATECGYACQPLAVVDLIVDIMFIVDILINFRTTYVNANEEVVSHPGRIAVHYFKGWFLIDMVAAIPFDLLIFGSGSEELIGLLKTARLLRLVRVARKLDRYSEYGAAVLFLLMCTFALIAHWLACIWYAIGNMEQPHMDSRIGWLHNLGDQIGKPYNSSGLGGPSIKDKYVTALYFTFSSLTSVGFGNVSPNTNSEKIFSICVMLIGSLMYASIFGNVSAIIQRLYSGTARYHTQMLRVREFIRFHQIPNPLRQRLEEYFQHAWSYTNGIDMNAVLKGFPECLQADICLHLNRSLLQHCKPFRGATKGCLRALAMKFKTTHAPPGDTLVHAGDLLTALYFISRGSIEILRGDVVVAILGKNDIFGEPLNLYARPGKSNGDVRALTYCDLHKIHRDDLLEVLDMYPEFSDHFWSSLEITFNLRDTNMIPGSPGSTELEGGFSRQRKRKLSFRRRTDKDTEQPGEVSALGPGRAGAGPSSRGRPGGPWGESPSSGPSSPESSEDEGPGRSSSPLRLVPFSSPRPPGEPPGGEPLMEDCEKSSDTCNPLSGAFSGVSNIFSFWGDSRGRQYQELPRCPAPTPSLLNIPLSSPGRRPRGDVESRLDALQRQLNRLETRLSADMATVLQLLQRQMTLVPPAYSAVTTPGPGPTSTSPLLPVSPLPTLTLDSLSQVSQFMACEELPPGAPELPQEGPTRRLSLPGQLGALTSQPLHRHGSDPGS

SMILES | inhibition at 11.1 µM (hERG (Kv11.1, KCNH2) [1]) | inhibition at 1.1 µM (hERG (Kv11.1, KCNH2) [2])
O=C(Nc1ccc(Cl)c(Cl)c1)Nc1ccc(Cl)c(Cl)c1 | 103% (active) | 15%
COc1ccc(/C=C2/SC(=Nc3ccccc3)NC2=O)cc1 | 27% | 12%
O=C(Nc1ccccc1O)c1ccc(Oc2cccc(C(=O)Nc3ccccc3O)c2)cc1 | 5% (inactive) | -2%
O=C1c2ccccc2-c2nnc(-c3ccc(Br)cc3)cc21 | 2% (inactive) | -3%
N=c1n(CCN2CCCCC2)c2ccccc2n1CC(O)c1cccc(Br)c1 (stereo not given) | 73% (active) | 18%
Cc1ccc(-c2cc(C(=O)Nc3ccc(S(=O)(=O)N4CCCCC4)cc3)[nH]n2)c(O)c1 | 8% (inactive) | -1%
CCOC(=O)C1=C(C)N=c2sc(=Cc3cc(Cl)ccc3O)c(=O)n2C1c1ccc(OC)cc1 (stereo not given) | 2% (inactive) | 2%
COc1ccc(-c2nc(NC(=O)CS(=O)(=O)c3ccc(F)cc3)sc2C)cc1 | 69% (active) | 7%
COc1cc(C(=O)Nc2ccc(-c3nc4ccccc4[nH]3)cc2)cc(OC)c1OC | 17% (inactive) | -12%
FC(F)(F)c1ccc(Nc2nnnc3ccccc23)cc1 | -2% (inactive) | -4%
c1ccc(-c2ccc(-c3nc4ccccc4[nH]3)cc2)cc1 | -8% (inactive) | -2%
CCC(C)NCC(O)(c1ccc(Cl)cc1)c1ccc(Cl)cc1 (stereo not given) | 89% (active) | 24%
COc1cccc(NC(=O)[C@H](C(C)C)n2c(=O)[nH]c3ccccc3c2=O)c1 | 17% (inactive) | 2%
COc1ccc2nc(N)nc(C)c2c1 | 4% (inactive) | 10%
COc1cccc(NC(=O)Cn2c(C)c(C#N)c3ccccc32)c1 | -4% (inactive) | 2%
CCC(c1ccccc1)c1nn2c(-c3cccs3)nnc2s1 (stereo not given) | 42% | 8%
O=C(CCl)NCCOc1ccc(Cl)cc1Cl | 62% (active) | 1%
CC(Oc1ccc(NC(=O)c2cccs2)cc1)C(=O)c1ccc(Cl)cc1 (stereo not given) | 55% (active) | -4%
CCCCNc1nc(NC(C)(C)C)nc(NC(C)(C)C)n1 | 1% (inactive) | -1%
COc1ccc(CNC(=O)c2cc3c(=O)n4ccccc4nc3n(CCc3ccccc3)c2=N)cc1 | 45% | 10%
CCOC(=O)c1c(NC(=O)c2ccccc2)sc2c(O)c(CN(CC)CC)ccc12 | 23% (inactive) | 4%
CCOc1cc(Br)c(C(C)NC(=O)c2cccc(OC)c2)cc1OCC (stereo not given) | 2% (inactive) | -12%
CC(C)=CCN1CCC(C(=O)Nc2ccc(-c3nc4ccccc4[nH]3)cc2)CC1 | 29% | 0%
CCOc1cc(Cl)c(C(C)NC(=O)c2cccc(OC)c2)cc1OCC (stereo not given) | 9% (inactive) | -3%
Cc1cc(Nc2ccc(C)c(Cl)c2)n2nc(C(F)(F)F)nc2n1 | 72% (active) | 23%

SMILES | inhibition at 11.1 µM (hERG (Kv11.1, KCNH2) [1]) | inhibition at 1.1 µM (hERG (Kv11.1, KCNH2) [2])
FC(F)(F)c1cccc(Nc2nc(-c3ccccc3)nc3ncccc23)c1 | 0% (inactive) | -8%
Nc1ccc(-c2nc3cc(Cc4ccc5[nH]c(-c6ccc(N)cc6)nc5c4)ccc3[nH]2)cc1 | 21% (inactive) | 12%
CC(=O)c1sc(NC(=O)Nc2ccc(C)cc2C)nc1C | 38% | 7%
CCCCOC(=O)c1ccc(Nc2cc(C)nc3ccc(OC)cc23)cc1 | 91% | 65%
Cn1c(=O)n(C)c2cc(CNCCNc3ccnc4cc(Cl)ccc34)ccc21 | 60% (active) | 16%
Cn1c(C(=O)c2cccc3ccccc23)nc2ccccc21 | 1% (inactive) | -4%
N=c1c2ccccc2nnn1-c1cccc(C(F)(F)F)c1 | 11% (inactive) | -3%
Oc1ccc(Cl)cc1CNc1nc2ccccc2[nH]1 | 52% (active) | 14%
O=C(Nc1ccc(-c2nc3ccccc3[nH]2)cc1)c1ccc(Cl)c(Cl)c1 | 45% | 2%
CCOc1cc(Cl)c(C(C)NC(=O)c2ccccc2)cc1OCC (stereo not given) | 7% (inactive) | -6%
O=C(c1ccccc1F)N(Cc1ccc(Cl)cc1)c1ccccn1 | 22% (inactive) | 7%
COCCn1c(C)nc2ccccc2c1=O | 1% (inactive) | 3%
O=C(Nc1cccc(-c2nc3ccccc3[nH]2)c1)c1cccc(NC(=O)c2ccco2)c1 | 6% (inactive) | -6%
COc1ccc(C(=O)Nc2ccc(Cl)cc2C(=O)Nc2ccncc2)cc1 | -3% (inactive) | -6%
O=C(Nc1ccc(CN2CCOCC2)cc1)c1ccc(-c2ccc(Br)cc2)o1 | 98% (active) | 42%
COc1ccccc1CNC(=O)CCn1c(=O)[nH]c2ccccc2c1=O | 19% (inactive) | -6%
O=C(Nc1ccc(Cl)cc1)N1CCN(c2ccc3nncn3n2)CC1 | 58% (active) | 0%
O=C(CSc1ccc2nnc(-c3cccc(F)c3)n2n1)Nc1ccc2c(c1)OCO2 | 3% (inactive) | 5%
CCCCNCC(O)(c1ccc(Cl)cc1)c1ccc(Cl)cc1 | 95% (active) | 30%
Oc1c(C(Nc2ccccn2)c2cccc(Oc3ccccc3)c2)ccc2cccnc12 (stereo not given) | 97% (active) | 20%
CCOC(=O)c1cn(CC)c2cc(N3CCCCC3)c(F)cc2c1=O | 25% | -4%
CCCc1cc(O)c2c3c(c(=O)oc2c1)CN(C)CC3 | 94% (active) | 46%
CC(C)(C)C(=O)Nc1ccc(C(=O)Nc2cccc(-c3nc4ccccc4[nH]3)c2)cc1 | 40% | 8%
COc1ccc(-c2nonc2NC(=O)c2cccc(C)c2)cc1OC | -3% (inactive) | 5%
OC(CNC1CCCCC1)Cn1c2ccc(I)cc2c2cc(I)ccc21 (stereo not given) | 12% (inactive) | -5%

SMILES | inhibition at 11.1 µM (hERG (Kv11.1, KCNH2) [1]) | inhibition at 1.1 µM (hERG (Kv11.1, KCNH2) [2])
O=C(Nc1ccsc1C(=O)NC1CCCCC1)c1ccc(F)cc1 | 3% (inactive) | -3%
CCc1ccc(CNCC(O)c2ccccc2)cc1 (stereo not given) | 67% (active) | 32%
CCOc1ccc(-c2nonc2NC(=O)c2cccc(C)c2)cc1OCC | 0% (inactive) | -1%
COc1ccc(N2CCN(C(CNC(=O)CC(C)(C)C)c3ccc4c(c3)OCO4)CC2)cc1 (stereo not given) | 24% (inactive) | -5%
COc1cccc(C(=O)NC(c2ccc(C)cc2)c2cc(Cl)c3cccnc3c2O)c1 (stereo not given) | -6% (inactive) | 4%
COc1ccc2c(=O)cc(C(Cl)(Cl)Cl)oc2c1 | 9% (inactive) | 6%
CC(C)(C)CC(C)(C)NCC(O)COc1ccc2c(c1)CCC2 (stereo not given) | 62% (active) | 8%
CCOc1ccc(/C=C/c2nc(=O)c3ccccc3o2)cc1 | 19% (inactive) | 1%
O=C(Nc1ccccc1O)c1ccc(-c2ccc(Cl)cc2Cl)o1 | 3% (inactive) | 1%
O=C(Nc1ccc(F)c(Cl)c1)Nc1ccc(Cl)c(Cl)c1 | -3% (inactive) | -11%
O=C(Cc1ccccc1)NC(c1ccc(Cl)cc1)c1c(O)ccc2ccccc12 (stereo not given) | -1% (inactive) | -2%
Oc1ccc(C(=C(Cl)Cl)c2ccc(O)cc2)cc1 | 15% (inactive) | 7%
CCOc1ccc(-c2nc(NC(=O)c3cccc(S(C)(=O)=O)c3)sc2C)cc1 | 29% | 3%
COc1ccc(CN2CCN(Cc3ccccc3)CC2)c(O)c1 | 66% (active) | 15%
COc1ccccc1N1CCN(C(CNS(=O)(=O)c2ccc(Cl)cc2)c2cccnc2)CC1 (stereo not given) | 44% | 4%
Oc1ccc(Br)cc1CN1CCN(Cc2ccc(Cl)cc2)CC1 | 10% (inactive) | 2%
CCOc1c(Cl)cc(CNC(C)C(O)c2ccccc2)cc1OC (stereo not given) | 39% | -4%
COc1ccc(C(=O)C2CC2c2ccc(Cl)cc2)cc1 (stereo not given) | 13% (inactive) | -6%
CCN(CC)CCCNc1nc(-c2ccc(Cl)cc2)nc2ccccc12 | 94% (active) | 8%
O=c1c2c([nH]c3ccccc13)CCCC2 | 6% (inactive) | 4%
CC1CC2=C(CC1CNCCCN(C)C)C(C)(C)CCC2 (stereo not given) | 77% (active) | -3%
O=C(NCC1Cc2cccc(-c3ccncc3)c2O1)c1csc2c1CCCC2 (stereo not given) | 61% (active) | 13%
CCOC(=O)c1cnc2ccc(OC)cc2c1NCc1ccccc1 | 4% (inactive) | -2%
Cc1c(C)n(CC(O)CNC2CCCCC2C)c2ccccc12 (stereo not given) | 20% (inactive) | -10%
Cc1ccc(S(=O)(=O)c2c(COC(=O)c3cccc(C)c3)c(-c3ccccc3)nn2C)cc1 | 12% (inactive) | 4%
